From patent US20030166721A1, “Choline derivative for the treatment of alzheimer's disease” (priority 2000, published 2003)

Tested on: NBM lesioned rats
Experiment: EEG in rats with unilateral AMPA lesion of Meynert nucleus basalis (NBM)
Assay type: in vivo, rat
Description: Male Wistar rats (200-250 g), anaesthetised with chloral hydrate (400 mg/kg), were subjected to unilateral lesion of Meynert nucleus basalis (NBM), by intracerebral infusion of α-amino-3-hydroxy-4-isoxazolepropionic acid (AMPA) (1.3 μg/0.5 μl). The animals were divided into four groups, the first two were subjected to NBM lesion; the third was a sham-operated group, and the last was the control group. Two weeks after the lesion, the animals were implanted under general anesthesia, with cortical electrodes (n=4) onto the fronto-parietal region, so as to make it possible, 24 hours later, to record the EEG activity of freely moving animals. EEG activity was continuously monitored and recorded for 60 min by a computerised EEG Berg-Fourier apparatus. Spontaneous activity of the EEG spectrum total power (0.25-16 Hz), as well as that of preselected frequency bands, was recorded for times of 5 min and quantitized (μV).
In order to quantitize AMPA-induced neuronal loss in NBM, coronal serial sections of rat brain were prepared, then stained with toluidine blue to verify the injection site and treated, by immunohistochemical procedure, with 192LR-NGF to quantitize the neuronal loss. Said sections were analysed by a computerized system for image analysis (Axiophoy Zeiss and Vidas Kintron). Statistical analysis of the data from the morphological study was performed by ANOVA followed, if significant, by the post-hoc Tuckey-Kramer test.
In lesioned animals (n=16), with about 45% neuronal loss at the NBM level (FIG. 5), EEG synchronization accompanied with significant increase (P<0.01) in total power (0.25-16 Hz), (170.4±25.8) of EEG spectrum (μV), as well as in higher frequency bands (6-9, 9-12 and 12-16 Hz) (FIG. 7; Tab. 4), was observed. EEG activity of half the NBM lesioned animals was further recorded. After recording the baseline EEG activity, this group of animals was intraperitoneally administered with a PC-1 single dose.

[1] = NBM unilaterally lesioned rats + PC-1 (5 mg i.p.), hemisphere ipsilateral to lesion

## CC(C)(C)C(=O)OCC[N+](C)(C)C.[I-] [PC-1, pivaloylcholine iodide]
NBM lesioned rats (AMPA), 5 mg i.p.
  Effect on EEG spectrum after NBM excitotoxic lesion (FIG. 7): restores both the normal composition of EEG spectrum and the distribution of its frequencies
NBM lesioned rats, 5 mg i.p.
  Duration of the decrease in ECoG spectrum total power: about 15 min
  Time to onset of alert response, EEG desynchronization and decrease in ECoG total power: ≤ 15 min
NBM lesioned rats, 5 mg i.p., P<0.05
  Change in 6 rhythm (0.25-3 Hz): significant decrease
NBM lesioned rats, 5 mg i.p., presumably after PC-1
  ECoG spectrum total power, second value of printed pair: 96±20.3
NBM lesioned rats, 5 mg i.p., presumably before PC-1
  ECoG spectrum total power, first value of printed pair: 150±19.3
[1]
  EEG spectrum band 0.25-3 Hz: 3.4%
  EEG spectrum band 3-6 Hz: 33.3%
  EEG spectrum band 6-9 Hz: 23.5%
  EEG spectrum band 9-12 Hz: 13.6%
  EEG spectrum band 12-16 Hz: 14.6%
